Data set [1] can be described thus: Chemical stability of the compound. In kind it is physicochemical.
Data set [2] can be described thus: Cytotoxicity against CD70 deficient human L540cy cells expressing CD30 after 96 hrs. In kind it is functional, cell-based.
In data set [3] the test system is CAKI-1. In words: Cytotoxicity against CD30 deficient human Caki1 cells expressing CD70 after 96 hrs. It counts as functional, cell-based. To be noted: CAKI-1, 96 h.

A word on the IC50: it is the concentration needed to halve the response being measured. In the case of `C=C(C)CC(OC)[C@H](O)C(=O)N[C@@H](OC)[C@@H]1C[C@@H](O)C(C)(C)[C@@H](C[C@H](O)[C@@H](C)[C@H]2Cc3c(C)c(O)cc(O)c3C(=O)O2)O1` (stereo partly drawn) [IRCINIASTATIN A], in data set [1], the Stability result is “Stable”. In addition, the IC50 in data set [2] amounted to 700 pM; in data set [3] it was 300 pM.

Source of the values: ChEMBL document CHEMBL2040788, “Expanded Utility of the β-Glucuronide Linker: ADCs That Deliver Phenolic Cytotoxic Agents” (ACS Med Chem Lett, 2010).
